From publication PMC11403612, “Preparation and Preclinical Characterization of a Simple Ester for Dual Exogenous Supply of Lactate and Beta-hydroxybutyrate” (Journal of Agricultural and Food Chemistry, 2024)

Columns and labels:
[1] = In vitro stability in simulated intestinal fluid; format: in vitro ADME; conditions: simulated intestinal fluid (SIF) with pancreatin, intestinal enzymes (pancreatin), pH = 6.8
Description: (§1) The in vitro stability of LaKe was evaluated following incubation in simulated gastric fluid (SGF), simulated intestinal fluid (SIF), fresh and frozen plasma (rats and humans, respectively), and the presence of hepatocytes (rats and humans) and liver microsomes (rats and humans). At the chosen time points, the mixtures were analyzed by LC-MS/MS to quantify the remaining LaKe and all assays included at least one control compound with known pharmacokinetic properties. […]
(§2) centrifuged at 4000 rpm, 4℃ for 20 min. 60 μL of supernatant was mixed with 180 μL of purified water for subsequent LC/MS/MS analysis.
LC-MS/MS Condition: ACQUITY UPLC BEH C18 1.7um 2.1 * 50mm Column (Part No.186002350). Mobile phase: A: 0.1% Formic Acid in Water; B: 0.1% Formic Acid in ACN.
Stability of LaKe in simulated intestinal fluid (SIF)
Preparation of SIF-solution: 0.136 g KH2PO4 and 0.064 g pancreatin was dissolved H2O to a total volume of solution 20 mL. The pH of the test solution was adjusted to 6.80 ± 0.05.
Procedure: 2 μL of a 10mg/ml working solution of LaKe in DMSO was spiked into 96-deep-well plates corresponding to timepoints T0, T60, T120, T360 and T1440. Experiments were performed in duplicate. 198 μL of SIF solution was then transferred to the individual wells (except T0) to reach 0.1mg/ml as the final test concentration for each time point (60, 120, 360, 1440 minutes). […]

[2] = Stability of LaKe in plasma, rat; format: in vitro ADME
Description: as §1, §2
LC-MS/MS Condition: ACQUITY UPLC BEH C18 1.7um 2.1 * 50mm Column (Part No.186002350). Mobile phase: A: 0.1% Formic Acid in Water; B: 0.1% Formic Acid in ACN. […]
Samples were incubated at 37 ℃, 600 rpm for the appointed time. At the chosen time points (60, 120, 360, 1440 minutes) samples were immediately mixed with 400 μL of cold acetonitrile containing 200 ng/mL tolbutamide and labetalol (internal standards). 200 μL of suspension was removed and mixed completely with 400 μL of cold acetonitrile containing 200 ng/mL tolbutamide and labetalol again. The T0 samples were prepared by transferring 198 μL of SIF solution to corresponding well after adding 400 μL of cold acetonitrile containing 200 ng/mL tolbutamide and then mixing completely. The samples were […]
Stability of LaKe in plasma […]

Compound: CC(O)CCOC(=O)C(C)O (stereo not drawn) [LaKe, 3-hydroxybutyl 2-hydroxypropanoate]
- half-life at 0.1 mg/ml [1]: < 2 h
- detection of LaKe at the first time point ([2]; fresh plasma from rats, 10 min): could not be detected
- half-life at 2 µM ([2]; rat plasma (fresh)): < 0.5 h
